Measured values as given in the Kinase Knowledgebase extract (Sharma et al. 2016).

How the values were obtained:
[1] = biological target: PIK3CA (human) (UniProt P42336); test: Inhibition of PIK3CA Kinase Activity
[2] = biological target: PIK3CA (human) (UniProt P42336); test: Inhibition of A2780 Cell Proliferation

Chain of PIK3CA (human) (P42336 whole entry, looked up): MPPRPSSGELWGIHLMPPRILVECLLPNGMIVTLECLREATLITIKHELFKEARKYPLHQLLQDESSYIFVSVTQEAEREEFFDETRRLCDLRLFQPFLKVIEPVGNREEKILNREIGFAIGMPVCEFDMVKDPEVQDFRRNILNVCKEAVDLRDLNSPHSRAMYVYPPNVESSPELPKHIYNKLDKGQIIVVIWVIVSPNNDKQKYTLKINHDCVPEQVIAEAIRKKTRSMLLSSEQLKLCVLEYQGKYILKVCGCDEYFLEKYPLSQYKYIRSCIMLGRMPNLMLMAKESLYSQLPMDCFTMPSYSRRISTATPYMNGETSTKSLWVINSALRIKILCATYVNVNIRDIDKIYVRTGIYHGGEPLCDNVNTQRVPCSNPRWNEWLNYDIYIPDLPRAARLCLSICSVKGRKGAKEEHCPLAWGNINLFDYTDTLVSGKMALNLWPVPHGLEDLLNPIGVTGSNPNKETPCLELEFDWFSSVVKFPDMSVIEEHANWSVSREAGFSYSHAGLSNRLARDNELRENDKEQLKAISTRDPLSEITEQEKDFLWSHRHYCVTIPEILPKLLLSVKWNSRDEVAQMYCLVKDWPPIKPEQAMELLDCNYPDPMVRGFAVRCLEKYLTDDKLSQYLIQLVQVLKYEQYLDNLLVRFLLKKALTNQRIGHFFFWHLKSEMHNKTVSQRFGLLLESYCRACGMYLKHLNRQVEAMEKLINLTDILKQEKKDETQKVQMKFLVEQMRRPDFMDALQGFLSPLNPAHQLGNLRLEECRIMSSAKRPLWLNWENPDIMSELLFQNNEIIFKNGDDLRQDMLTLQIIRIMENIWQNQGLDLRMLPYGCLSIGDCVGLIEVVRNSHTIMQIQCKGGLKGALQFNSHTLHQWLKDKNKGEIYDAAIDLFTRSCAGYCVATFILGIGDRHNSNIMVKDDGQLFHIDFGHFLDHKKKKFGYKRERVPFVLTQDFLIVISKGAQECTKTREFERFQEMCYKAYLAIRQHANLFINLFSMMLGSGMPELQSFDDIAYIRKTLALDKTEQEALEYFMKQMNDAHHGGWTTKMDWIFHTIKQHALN

SMILES	IC50 [1]	EC50 [2]
Nc1ncc(-c2ccc3nc(NC(=O)[C@@H]4CCCN4)cn3c2)cc1C(F)(F)F	< 25 µM	< 10 µM
CCN1CCN(CCCC(=O)Nc2cn3cc(-c4cnc(N)c(C(F)(F)F)c4)ccc3n2)CC1	< 1 µM	< 10 µM
CC(=O)Nc1cn2nc(-c3cnc(N)c(C(=O)O)c3)ccc2n1	< 1 µM	< 25 µM
CN(C)CCCC(=O)Nc1cn2nc(-c3cnc(N)c(C(F)(F)F)c3)ccc2n1	< 1 µM	< 1 µM
CC(=O)Nc1cn2cc(-c3cnc(N)c(OC4CN(C(=O)OC(C)(C)C)C4)n3)ccc2n1	< 1 µM	< 1 µM
COc1ccc(CC(=O)Nc2cn3cc(-c4cnc(N)c(C(F)(F)F)c4)ccc3n2)cc1OC	< 1 µM	< 10 µM
Nc1ncc(-c2ccc3nc(NC(=O)N4CC[C@H](O)C4)cn3c2)cc1C(F)(F)F	< 1 µM	< 10 µM
CC(=O)Nc1cn2cc(-c3cnc(N)c(-c4ccc(F)cc4)c3)ccc2n1	< 1 µM	< 25 µM
Nc1ncc(-c2ccc3nc(NC(=O)C4CCN4)cn3n2)cc1C(F)(F)F (stereo not given)	< 1 µM	< 10 µM
CC(=O)Nc1cn2cc(-c3cnc(N)c(C=O)c3)ccc2n1	< 1 µM	< 10 µM
Nc1ncc(-c2ccc3nc(NC(=O)CCC4CCCCN4)cn3n2)cc1C(F)(F)F (stereo not given)	< 1 µM	< 1 µM
CC(=O)Nc1cn2cc(-c3cnc(N)c(C(=O)N4CCNCC4)c3)ccc2n1	< 1 µM	< 25 µM
CC(=O)Nc1cn2cc(-c3cnc(N)c(N4CCOCC4)n3)ccc2n1	< 1 µM	< 10 µM
CN(C)C1CCN(C(=O)Nc2cn3cc(-c4cnc(N)c(C(F)(F)F)c4)ccc3n2)C1 (stereo not given)	< 1 µM	< 10 µM
Nc1ncc(-c2ccc3nc(NC(=O)CCCN4CCOCC4)cn3n2)cc1C(F)(F)F	< 1 µM	< 1 µM
CC(=O)Nc1cn2nc(-c3cnc(N)c(-c4ccccc4)c3)ccc2n1	< 1 µM	< 1 µM
CC(=O)Nc1ccc(-c2c(NC(C)=O)nc3ccc(-c4cnc(N)c(C(F)(F)F)c4)cn23)cc1	< 1 µM	< 25 µM
CC(=O)Nc1cn2cc(-c3cnc(N)c(-c4cccc(OC(F)(F)F)c4)c3)ccc2n1	< 1 µM	< 1 µM
NCC(=O)Nc1cn2cc(-c3cnc(N)c(C(F)(F)F)c3)ccc2n1	< 1 µM	< 10 µM
CC(C)(C)OC(=O)N1CC[C@H](OCC(=O)Nc2cn3nc(-c4cnc(N)c(C(F)(F)F)c4)ccc3n2)C1	< 1 µM	< 1 µM
Nc1ncc(-c2ccc3nc(NC(=O)[C@@H]4CCN4)cn3c2)cc1C(F)(F)F	< 1 µM	< 10 µM
CCN1CC[C@@H](OCC(=O)Nc2cn3cc(-c4cnc(N)c(C(F)(F)F)c4)ccc3n2)C1	< 1 µM	< 10 µM
CC(C)(C)OC(=O)NCCC(=O)Nc1cn2nc(-c3cnc(N)c(C(F)(F)F)c3)ccc2n1	< 1 µM	< 10 µM
CC(=O)Nc1nc2ccc(-c3cnc(N)c(C(F)(F)F)c3)cn2c1C#Cc1ccncc1	< 1 µM	< 1 µM
C/C=C/C(=O)Nc1cn2cc(-c3cnc(N)c(C(F)(F)F)c3)ccc2n1	< 1 µM	< 10 µM
CC(=O)Nc1cn2cc(-c3cnc(N)c(C)c3)ccc2n1	< 1 µM	< 10 µM
CC(=O)Nc1nc2ccc(-c3cnc(N)c(F)c3)cc2s1	< 1 µM	< 10 µM

SMILES	IC50 [1]	EC50 [2]
Nc1ncc(-c2ccc3nc(NC(=O)CCCN4CCOCC4)sc3c2)cn1	< 1 µM	< 10 µM
CON=Cc1cc(-c2ccc3nc(NC(C)=O)cn3c2)cnc1N	< 1 µM	< 25 µM
CC(=O)Nc1nc2ccc(-c3cnc(N)c(C(F)(F)F)c3)cn2c1-c1ccc(C(N)=O)cc1	< 1 µM	< 25 µM
CC(=O)Nc1nc2ccc(-c3cnc(N)cc3C)cc2s1	< 1 µM	< 25 µM
CC(=O)Nc1cn2nc(-c3cnc(N)c(CN4CCCC4)c3)ccc2n1	< 1 µM	< 10 µM
Nc1ncc(-c2ccc3nc(NC(=O)N4CC[C@H]4C(=O)O)cn3c2)cc1C(F)(F)F	< 10 µM	< 25 µM
Nc1ncc(-c2ccc3nc(NC(=O)c4ccc(N5CCNCC5)nc4)cn3c2)cc1C(F)(F)F	< 1 µM	< 10 µM
CC(=O)Nc1cn2cc(-c3cnc(N)c(C(=O)N4CCN(C(=O)OC(C)(C)C)CC4)c3)ccc2n1	< 1 µM	< 25 µM
Nc1ncc(-c2ccc3nc(NC(=O)c4ccc(F)cc4)cn3c2)cc1C(F)(F)F	< 1 µM	< 1 µM
COc1ccc(CC(=O)Nc2cn3cc(-c4cnc(N)c(C(F)(F)F)c4)ccc3n2)cc1	< 1 µM	< 1 µM
CC(C)(C)OC(=O)N1CCCCC1CCC(=O)Nc1cn2nc(-c3cnc(N)c(C(F)(F)F)c3)ccc2n1 (stereo not given)	< 1 µM	< 10 µM
CC(=O)Nc1nc2ccc(-c3cnc(N)c(C(F)(F)F)c3)cn2c1CCc1ccccc1	< 1 µM	< 10 µM
CC(=O)Nc1nc2ccc(-c3cnc(N)c(C(F)(F)F)c3)cn2c1C#Cc1ccccn1	< 1 µM	< 10 µM
CC(C)(C)OC(=O)N1CC[C@H]1C(=O)Nc1cn2cc(-c3cnc(N)c(C(F)(F)F)c3)ccc2n1	< 1 µM	< 25 µM
Nc1ccc(-c2ccc3nc(NC(=O)OCCN4CCOCC4)sc3c2)cn1	< 1 µM	< 25 µM
COCCOc1nc(-c2ccc3nc(NC(=O)C4CCN4C(C)=O)cn3c2)cnc1N (stereo not given)	< 1 µM	< 10 µM
Nc1ncc(-c2ccc3nc(NC(=O)CCO)cn3c2)cc1C(F)(F)F	< 1 µM	< 10 µM
Nc1ncc(-c2ccc3nc(NC(=O)N4CCCC4c4ccccn4)cn3c2)cc1C(F)(F)F (stereo not given)	< 1 µM	< 25 µM
Nc1ncc(-c2ccc3nc(NC(=O)C4CNC4)cn3n2)cc1C(F)(F)F	< 1 µM	< 10 µM
CC(=O)Nc1cn2cc(-c3cnc(N)c(C=NOC(C)(C)C)c3)ccc2n1	< 1 µM	< 25 µM
CCOc1nc(-c2ccc3nc(NC(C)=O)cn3n2)cnc1N	< 1 µM	< 10 µM
Nc1ncc(-c2ccc3nc(NC(=O)[C@H]4CCCCN4)cn3c2)cc1C(F)(F)F	< 1 µM	< 10 µM
CC(=O)Nc1nc2ccc(-c3cnc(N)c(CN(C)C)c3)cc2s1	< 1 µM	< 10 µM
Nc1ncc(-c2ccc3nc(NC(=O)CO[C@H]4CCNC4)cn3n2)cc1C(F)(F)F	< 1 µM	< 1 µM
COc1ccccc1-c1cc(-c2ccc3nc(NC(C)=O)cn3n2)cnc1N	< 1 µM	< 10 µM
CC(=O)Nc1cn2nc(-c3cnc(N)c(-c4ccccc4Oc4ccccc4)c3)ccc2n1	< 1 µM	< 10 µM
Nc1ncc(-c2ccc3nc(NC(=O)CCCN4CCCCC4)cn3c2)cc1C(F)(F)F	< 1 µM	< 10 µM

SMILES	IC50 [1]	EC50 [2]
CCN(CC)Cc1cc(-c2ccc3nc(NC(C)=O)cn3n2)cnc1N	< 1 µM	< 10 µM
COCC(=O)Nc1cn2nc(-c3cnc(N)c(C(F)(F)F)c3)ccc2n1	< 1 µM	< 1 µM
CC(C)(C)OC(=O)N1CCC(OCC(=O)Nc2cn3cc(-c4cnc(N)c(C(F)(F)F)c4)ccc3n2)CC1	< 1 µM	< 10 µM
CC(=O)Nc1nc2ccc(-c3cnc(N)c(C(F)(F)F)c3)c(C)c2s1	< 1 µM	< 10 µM
CC(=O)N1CCC[C@H]1C(=O)Nc1cn2cc(-c3cnc(N)c(Cl)c3)ccc2n1	< 1 µM	< 25 µM
Cc1cc(C(=O)Nc2cn3cc(-c4cnc(N)c(C(F)(F)F)c4)ccc3n2)no1	< 1 µM	< 1 µM
CCNN=Cc1cc(-c2ccc3nc(NC(C)=O)cn3c2)cnc1N	< 1 µM	< 10 µM
CC(=O)Nc1cn2cc(-c3cnc(N)c(F)c3)ccc2n1	< 1 µM	< 25 µM
CN(CC(=O)Nc1cn2cc(-c3cnc(N)c(C(F)(F)F)c3)ccc2n1)C(=O)OC(C)(C)C	< 1 µM	< 10 µM
Nc1ncc(-c2ccc3nc(NC(=O)CN4CCCCC4)cn3c2)cc1C(F)(F)F	< 1 µM	< 10 µM
Nc1ncc(-c2ccc3nc(NC(=O)C(F)(F)F)cn3c2O)cc1C(F)(F)F	< 10 µM	< 25 µM
CC(=O)Nc1cn2cc(-c3cnc(N)c(-c4ccccc4)c3)ccc2n1	< 1 µM	< 10 µM
COC(=O)C1CCN(C(=O)Nc2cn3cc(-c4cnc(N)c(C(F)(F)F)c4)ccc3n2)C1 (stereo not given)	< 1 µM	< 10 µM
CNCC(=O)Nc1cn2cc(-c3cnc(N)c(C(F)(F)F)c3)ccc2n1	< 1 µM	< 1 µM
NCCCC(=O)Nc1cn2nc(-c3cnc(N)c(C(F)(F)F)c3)ccc2n1	< 1 µM	< 25 µM
CCOC(=O)CC(=O)Nc1cn2cc(-c3cnc(N)c(C(F)(F)F)c3)ccc2n1	< 1 µM	< 10 µM
CC(=O)Nc1nc2cc(F)c(-c3cnc(N)c(C(F)(F)F)c3)cc2s1	< 1 µM	< 25 µM
CC(=O)Nc1cn2cc(-c3cnc(N)c(Oc4ccc(N5CCN(C(C)=O)CC5)cc4)n3)ccc2n1	< 1 µM	< 10 µM
COc1ccc(C#Cc2c(NC(C)=O)nc3ccc(-c4cnc(N)c(C(F)(F)F)c4)cn23)cc1	< 1 µM	< 10 µM
CCN(CC)CC#Cc1c(NC(C)=O)nc2ccc(-c3cnc(N)c(C(F)(F)F)c3)cn12	< 1 µM	< 10 µM
CC(=O)Nc1cn2c(C)c(-c3cnc(N)c(OCC(F)(F)F)n3)ccc2n1	< 1 µM	< 10 µM
Nc1ncc(-c2ccc3nc(NC(=O)COC4CCNCC4)cn3c2)cc1C(F)(F)F	< 1 µM	< 10 µM
CC(=O)Nc1cn2cc(-c3cnc(N)c(C=NNc4ccccc4)c3)ccc2n1	< 1 µM	< 1 µM
Nc1ncc(-c2ccc3nc(NC(=O)C4CNC4)cn3c2)cc1C(F)(F)F	< 1 µM	< 10 µM
CC(C)(C(=O)Nc1cn2cc(-c3cnc(N)c(C(F)(F)F)c3)ccc2n1)c1ccccc1	< 10 µM	< 25 µM
CC(C)(C)OC(=O)N1CCC[C@@H]1C(=O)Nc1cn2nc(-c3cnc(N)c(C(F)(F)F)c3)ccc2n1	< 1 µM	< 25 µM
